Measurements: patent publication US8192962B2, “Processes for detecting toxic substances” (Daikin Industries, Ltd., priority 2001, dated 2012)

Tested on: Metabolism protein genes
Assay: DNA chip mRNA expression in yeast, metabolism protein genes (Table 7)
Format: cell-based, Saccharomyces cerevisiae S288C
Outline: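 S. cerevisiae S288C grown at 25° C. in YPD to log phase, then exposed 2 h to a toxicant at a growth-inhibiting, non-lethal concentration; untreated cells as control. Poly(A) mRNA reverse-transcribed with Cy3-dUTP or Cy5-dUTP, hybridized >12 h at 65° C. to whole-genome yeast DNA chip; value = fluorescence ratio treated/untreated.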

CCCCC[C@H](O)CC(=O)CCc1ccc(O)c(OC)c1 [(13), gingerol]
The level of expressed mRNA in the presence of chemical substance/The level of expressed mRNA in the absence of chemical substance (yeast gene YJL099W): 2.4
level of expressed mRNA in the presence/in the absence of chemical substance (yeast gene YJL121C): 0.7
level of expressed mRNA in the presence/in the absence of chemical substance (yeast gene YJL167W): 0.9
The level of expressed mRNA in the presence of chemical substance/The level of expressed mRNA in the absence of chemical substance (yeast gene YJL172W): 3.1
level of expressed mRNA in the presence/in the absence of chemical substance (yeast gene YJL216C): 1.1
level of expressed mRNA in the presence/in the absence of chemical substance (yeast gene YJR077C): 0.9
The level of expressed mRNA in the presence of chemical substance/The level of expressed mRNA in the absence of chemical substance (yeast gene YJR137C): 2.1
level of expressed mRNA in the presence/in the absence of chemical substance (yeast gene YJR143C): 0.3
The level of expressed mRNA in the presence of chemical substance/The level of expressed mRNA in the absence of chemical substance (yeast gene YJR148W): 1.1
The level of expressed mRNA in the presence of chemical substance/The level of expressed mRNA in the absence of chemical substance (yeast gene YJR155W): 5.7
The level of expressed mRNA in the presence of chemical substance/The level of expressed mRNA in the absence of chemical substance (yeast gene YKL035W): 2.0
level of expressed mRNA in the presence/in the absence of chemical substance (yeast gene YKL060C): 1.2
The level of expressed mRNA in the presence of chemical substance/The level of expressed mRNA in the absence of chemical substance (yeast gene YKL091C): 2.0
The level of expressed mRNA in the presence of chemical substance/The level of expressed mRNA in the absence of chemical substance (yeast gene YKL104C): 2.2
level of expressed mRNA in the presence/in the absence of chemical substance (yeast gene YKL148C): 0.8
The level of expressed mRNA in the presence of chemical substance/The level of expressed mRNA in the absence of chemical substance (yeast gene YKL152C): 2.7
level of expressed mRNA in the presence/in the absence of chemical substance (yeast gene YKL157W): 2.3
The level of expressed mRNA in the presence of chemical substance/The level of expressed mRNA in the absence of chemical substance (yeast gene YKL213C): 2.1
The level of expressed mRNA in the presence of chemical substance/The level of expressed mRNA in the absence of chemical substance (yeast gene YKL215C): 2.6
level of expressed mRNA in the presence/in the absence of chemical substance (yeast gene YKR034W): 1.2
The level of expressed mRNA in the presence of chemical substance/The level of expressed mRNA in the absence of chemical substance (yeast gene YKR039W): 1.3
The level of expressed mRNA in the presence of chemical substance/The level of expressed mRNA in the absence of chemical substance (yeast gene YLL058W): 2.3
level of expressed mRNA in the presence/in the absence of chemical substance (yeast gene YLR006C): 0.8
level of expressed mRNA in the presence/in the absence of chemical substance (yeast gene YLR044C): 1.7
level of expressed mRNA in the presence/in the absence of chemical substance (yeast gene YLR056W): 0.2
level of expressed mRNA in the presence/in the absence of chemical substance (yeast gene YLR058C): 0.3
level of expressed mRNA in the presence/in the absence of chemical substance (yeast gene YLR081W): 0.6
level of expressed mRNA in the presence/in the absence of chemical substance (yeast gene YLR089C): 1.0
The level of expressed mRNA in the presence of chemical substance/The level of expressed mRNA in the absence of chemical substance (yeast gene YLR180W): 0.6
The level of expressed mRNA in the presence of chemical substance/The level of expressed mRNA in the absence of chemical substance (yeast gene YLR273C): 1.7
level of expressed mRNA in the presence/in the absence of chemical substance (yeast gene YLR284C): 0.8
The level of expressed mRNA in the presence of chemical substance/The level of expressed mRNA in the absence of chemical substance (yeast gene YLR299W): 2.9
level of expressed mRNA in the presence/in the absence of chemical substance (yeast gene YLR304C): 0.5
The level of expressed mRNA in the presence of chemical substance/The level of expressed mRNA in the absence of chemical substance (yeast gene YLR307W): 1.0
The level of expressed mRNA in the presence of chemical substance/The level of expressed mRNA in the absence of chemical substance (yeast gene YLR348C): 1.9
level of expressed mRNA in the presence/in the absence of chemical substance (yeast gene YLR354C): 1.0
level of expressed mRNA in the presence/in the absence of chemical substance (yeast gene YLR372W): 0.1
level of expressed mRNA in the presence/in the absence of chemical substance (yeast gene YML022W): 0.2
level of expressed mRNA in the presence/in the absence of chemical substance (yeast gene YMR011W): 0.4
level of expressed mRNA in the presence/in the absence of chemical substance (yeast gene YMR015C): 0.4
level of expressed mRNA in the presence/in the absence of chemical substance (yeast gene YMR083W): 0.9
The level of expressed mRNA in the presence of chemical substance/The level of expressed mRNA in the absence of chemical substance (yeast gene YMR189W): 0.9
level of expressed mRNA in the presence/in the absence of chemical substance (yeast gene YMR205C): 1.3
level of expressed mRNA in the presence/in the absence of chemical substance (yeast gene YMR261C): 1.6
The level of expressed mRNA in the presence of chemical substance/The level of expressed mRNA in the absence of chemical substance (yeast gene YMR296C): 0.9
level of expressed mRNA in the presence/in the absence of chemical substance (yeast gene YMR323W): 1.8
The level of expressed mRNA in the presence of chemical substance/The level of expressed mRNA in the absence of chemical substance (yeast gene YNL012W): 2.9
level of expressed mRNA in the presence/in the absence of chemical substance (yeast gene YNL025C): 1.3
The level of expressed mRNA in the presence of chemical substance/The level of expressed mRNA in the absence of chemical substance (yeast gene YNL037C): 1.9
The level of expressed mRNA in the presence of chemical substance/The level of expressed mRNA in the absence of chemical substance (yeast gene YNL045W): 2.6
The level of expressed mRNA in the presence of chemical substance/The level of expressed mRNA in the absence of chemical substance (yeast gene YNL104C): 2.1
The level of expressed mRNA in the presence of chemical substance/The level of expressed mRNA in the absence of chemical substance (yeast gene YNL106C): 0.9
The level of expressed mRNA in the presence of chemical substance/The level of expressed mRNA in the absence of chemical substance (yeast gene YNL169C): 1.7
level of expressed mRNA in the presence/in the absence of chemical substance (yeast gene YNL192W): 2.7
The level of expressed mRNA in the presence of chemical substance/The level of expressed mRNA in the absence of chemical substance (yeast gene YNL322C): 0.8
The level of expressed mRNA in the presence of chemical substance/The level of expressed mRNA in the absence of chemical substance (yeast gene YNL331C): 3.1
The level of expressed mRNA in the presence of chemical substance/The level of expressed mRNA in the absence of chemical substance (yeast gene YNL332W): 2.1
The level of expressed mRNA in the presence of chemical substance/The level of expressed mRNA in the absence of chemical substance (yeast gene YNR002C): 2.1
The level of expressed mRNA in the presence of chemical substance/The level of expressed mRNA in the absence of chemical substance (yeast gene YNR019W): 2.1
The level of expressed mRNA in the presence of chemical substance/The level of expressed mRNA in the absence of chemical substance (yeast gene YNR059W): 2.4
The level of expressed mRNA in the presence of chemical substance/The level of expressed mRNA in the absence of chemical substance (yeast gene YOL058W): 1.2
level of expressed mRNA in the presence/in the absence of chemical substance (yeast gene YOL086C): 1.7
level of expressed mRNA in the presence/in the absence of chemical substance (yeast gene YOL108C): 1.3
level of expressed mRNA in the presence/in the absence of chemical substance (yeast gene YOL116W): 0.8
The level of expressed mRNA in the presence of chemical substance/The level of expressed mRNA in the absence of chemical substance (yeast gene YOL143C): 1.2
level of expressed mRNA in the presence/in the absence of chemical substance (yeast gene YOL156W): 1.7
The level of expressed mRNA in the presence of chemical substance/The level of expressed mRNA in the absence of chemical substance (yeast gene YOL165C): 3.7
level of expressed mRNA in the presence/in the absence of chemical substance (yeast gene YOR002W): 0.6
level of expressed mRNA in the presence/in the absence of chemical substance (yeast gene YOR085W): 1.0
The level of expressed mRNA in the presence of chemical substance/The level of expressed mRNA in the absence of chemical substance (yeast gene YOR099W): 1.6
level of expressed mRNA in the presence/in the absence of chemical substance (yeast gene YOR103C): 0.8
level of expressed mRNA in the presence/in the absence of chemical substance (yeast gene YOR108W): 1.3
level of expressed mRNA in the presence/in the absence of chemical substance (yeast gene YOR128C): 0.4
The level of expressed mRNA in the presence of chemical substance/The level of expressed mRNA in the absence of chemical substance (yeast gene YOR130C): 2.1
The level of expressed mRNA in the presence of chemical substance/The level of expressed mRNA in the absence of chemical substance (yeast gene YOR136W): 1.5
level of expressed mRNA in the presence/in the absence of chemical substance (yeast gene YOR142W): 1.4
level of expressed mRNA in the presence/in the absence of chemical substance (yeast gene YOR176W): 1.5
level of expressed mRNA in the presence/in the absence of chemical substance (yeast gene YOR178C): 1.0
level of expressed mRNA in the presence/in the absence of chemical substance (yeast gene YOR251C): 1.0
The level of expressed mRNA in the presence of chemical substance/The level of expressed mRNA in the absence of chemical substance (yeast gene YOR336W): 2.1
The level of expressed mRNA in the presence of chemical substance/The level of expressed mRNA in the absence of chemical substance (yeast gene YOR347C): 1.8
level of expressed mRNA in the presence/in the absence of chemical substance (yeast gene YOR348C): 1.1
The level of expressed mRNA in the presence of chemical substance/The level of expressed mRNA in the absence of chemical substance (yeast gene YPL017C): 1.9
level of expressed mRNA in the presence/in the absence of chemical substance (yeast gene YPL028W): 0.9
level of expressed mRNA in the presence/in the absence of chemical substance (yeast gene YPL057C): 1.3
level of expressed mRNA in the presence/in the absence of chemical substance (yeast gene YPL135W): 1.2
level of expressed mRNA in the presence/in the absence of chemical substance (yeast gene YPL148C): 0.6
level of expressed mRNA in the presence/in the absence of chemical substance (yeast gene YPR113W): 0.7
level of expressed mRNA in the presence/in the absence of chemical substance (yeast gene YPR165W): 1.0
The level of expressed mRNA in the presence of chemical substance/The level of expressed mRNA in the absence of chemical substance (yeast gene YPR167C): 1.9
level of expressed mRNA in the presence/in the absence of chemical substance (yeast gene YPR183W): 1.6
